These results are taken from publication PMC10474154, “Pro-arrhythmic effect of escitalopram and citalopram at serum concentrations commonly observed in older patients – a study based on a cohort of 19,742 patients” (eBioMedicine, 2023).

Entries after “also recorded” stand apart in the source; their conditions may differ.

Data set [1] can be described thus: Therapeutic drug monitoring (TDM) serum concentrations in patients. The settings on record: for Serum concentration, 10% percentile / Serum concentration, 25% percentile / Serum concentration, 50% percentile / Serum concentration, 75% percentile / Serum concentration, 90% percentile / Serum concentration, maximum / Serum concentration, minimum: trough; for Serum concentration, mean: trough (10-28 h after dose).
Description: Information regarding age, sex, daily dose and time between last dose and blood sampling was also collected from the database. For patients with multiple TDM measurements, only the last measurement was included. Included patients were divided into four subgroups based on age: (a) < 18, (b) 18–64, (c) 65–80, and (d) > 80 years.
Measured serum concentrations represent total concentrations, i.e. the sum of bound and unbound drug.
All patients were included unless they met the exclusion criteria. Exclusion criteria were: (a) serum concentration of citalopram, escitalopram and/or demethylcitalopram outside the limits of quantification (LOQ), (b) blood sampling not performed at trough levels, outside the time interval of 10–28 h after last dose intake, (c) prescribed dose of citalopram or escitalopram less/more than 2.5–80 mg or 2.5–60 mg, respectively, and (d) detection of interacting drugs in the citalopram/escitalopram serum sample. In detail, we screened the samples for CYP2C19 inducers carbamazepine, phenobarbital and phenytoin and the CYP2C19 or –2D6 inhibitors bupropion, fluoxetine, fluvoxamine, paroxetine or levomepromazine.
Differences in absolute serum concentrations of citalopram, escitalopram and metabolites as well as differences in time between last blood sampling and daily dose was investigated across the age subgroups using Kruskal Wallis test followed by Dunn's test. P-values were Bonferroni corrected by multiplying the P-value by the number of statistical analyses that were performed.

For data set [2] the following is noted: older patients (mean age 76), Canadian study; cited from earlier work.
For data set [3] the following is noted: cited from earlier work.
For data set [4], the system named is human induced pluripotent stem cell-derived cardiomyocytes (hiPSC-CM). In words: Action potential recordings in hiPSC-CM with voltage sensitive dye (FluoVolt, CellOPTIQ). Format: cell-based. The settings on record: hiPSC-CM. Here is the method: Cryopreserved human induced pluripotent stem cell-derived cardiomyocytes (hiPSC-CM): CDI iCell cardiomycytes^2 01434 CardioTox Kit (Catalog #: R1222, FujiFilm CDI, Madison, WI) were kept in liquid nitrogen until culture according to instructions by the manufacturer. […] All studies were conducted at Clyde Biosciences (Glasgow, Scotland). Cells were cultured in 96-well glass-bottomed plates (MatTek, Ashland, Massachusetts) coated with fibronectin ([…] in PBS supplemented with Ca2+ and Mg2+) (Sigma, St. Louis, Missouri) in a humidified incubator at 37 °C for 3 h. The cell density was 50,000 cells/cm2 (25,000 cells/well). The subsequent maintenance protocols followed manufacturer's instructions using their maintenance medial (FujiFilm CDI Cardiomyocytes Maintenance Media). Experiments were performed between days 4–8. Prior to beginning an experiment, cells were washed in serum-free media (SF media), specifically DMEM (Gibco, ThermoFisher Scientific, UK) supplemented with 10 mM galactose and 10 mM sodium pyruvate.
hiPSC-CM were loaded with 5 μM FluoVolt (ThermoFisher) and the multiwell plate was placed in the CellOPTIQ platform (at Clyde Biosciences Ltd, Glasgow, Scotland). The FluoVolt fluorescence signal was recorded using a 40 × (NA 0.6) objective lens. Excitation wavelength was 480 ± 10 nm, and emitted light was collected by a photomultiplier (PMT) at 510–560 nm. Drugs were supplied by Santa Cruz Biotechnology (Germany) and Toronto Research Chemicals (Canada). Their identity and concentration were blinded from the laboratory personnel. […] 30 min after exposure to the tested drug or vehicle a 20 s recording was taken. Offline analysis was performed using proprietary software (CellOPTIQ®). The following (averaged) parameters were obtained from the AP recordings of 4 independent replicates: cycle length (CL, […]); rise time (Trise, ms) between 10 and 90% of the AP amplitude, and AP durations (APD, ms) from 10% to 90% repolarization at 10% intervals. In this study rate-correction was based on previous studies.[14]
Drugs were tested at 3 concentrations with matched vehicle controls for each concentration. The chosen escitalopram (S-citalopram) concentration was 60 nM. Assuming no protein binding in the in vitro model, this corresponds to a total serum concentration of 136 nM, as escitalopram protein binding is reported at 55–56% (most commonly 56%, which is used in the present study).[15], [16], [17] […] This could vary with age and clinical conditions.[20] […] In a large therapeutic drug monitoring (TDM) study 60 nM was the average total concentration in patients with normal escitalopram metabolism through CYP2C19, and 136 nM was below the average total concentration in poor metabolizers.[7] After administration of racemic citalopram, R-citalopram is reported to be 3 times higher than S-citalopram in a publication by Ji et al.[22] The typical concentration of R-citalopram as well as the S-/R-demethylcitalopram and S-/R-didemethylcitalopram metabolites, were calculated according to ratios from their paper.[22]
Shapiro Wilk tests were used to determine whether the data in this study were normally distributed based on a least-squares fit to a normal function, while Brown–Forsythe test was used to verify homogeneity of variance (Origin version 9, OriginLab Corp., Northampton, Massachusetts). […] Statistical tests were made using a paired t-tests for differences between absolute values, with P-values adjusted for multiple comparisons using the Benjamini-Hochberg procedure (one-way ANOVA). The relationship between AP duration at 90% of repolarization (APD90) and CL or diastolic interval was fit to single or double exponential functions (Origin version 9).

For `CN(C)CCCC1(c2ccc(F)cc2)OCc2cc(C#N)ccc21` (stereo not drawn) [Citalopram, citalopram], in data set [1] (citalopram users), the “Serum concentration, 10% percentile” value was 48 nM; the “Serum concentration, 25% percentile” value came to 84 nM; the “Serum concentration, 50% percentile” value came out at 133 nM; the “Serum concentration, 75% percentile” value is 211 nM. In addition, in data set [1] (citalopram users), the “Serum concentration, 90% percentile” value is 314 nM; the “Serum concentration, maximum” value is 733 nM; the “Serum concentration, minimum” value came out at 7 nM; the “Serum concentration, mean” value worked out at 163 nM. The “Relative risk for hospitalization due to ventricular arrhythmia” value in data set [2] is 1.53. In addition, in data set [3], the “Time of maximum concentration after intake (Tmax)” value is 3 to 4 h.
Regarding `CNCCCC1(c2ccc(F)cc2)OCc2cc(C#N)ccc21` (stereo not drawn) [Demethylcitalopram, demethylcitalopram], in data set [1] (citalopram users), the “Serum concentration, 10% percentile” value was determined as 23 nM; the “Serum concentration, 25% percentile” value amounted to 35 nM; the “Serum concentration, 50% percentile” value amounted to 55 nM; the “Serum concentration, 75% percentile” value is 87 nM. Further, in data set [1] (citalopram users), the “Serum concentration, 90% percentile” value worked out at 130 nM; the “Serum concentration, maximum” value was 395 nM; the “Serum concentration, minimum” value was found to be 5 nM; the “Serum concentration, mean” value amounted to 68 nM. Besides, in data set [1] (escitalopram users), the “Serum concentration, 10% percentile” value is 13 nM; the “Serum concentration, 25% percentile” value was 18 nM; the “Serum concentration, 50% percentile” value is 26 nM; the “Serum concentration, 75% percentile” value was determined as 37 nM. In data set [1] (escitalopram users), the “Serum concentration, 90% percentile” value was 51 nM; the “Serum concentration, maximum” value came to 329 nM; the “Serum concentration, minimum” value turned out to be 5 nM; the “Serum concentration, mean” value is 30 nM.
`CN(C)CCC[C@]1(c2ccc(F)cc2)OCc2cc(C#N)ccc21` [R-citalopram]: the Triangulation effect entry in data set [4] (10 times typical concentrations) is reported as “substantial increase”. Moreover, the “% Change of cycle length from baseline” value in data set [4] (10x clinical concentration) is given as -1.96±5.39%; in data set [4] (100x clinical concentration) it was “Quiescent”; in data set [4] (clinical concentration) it was 0.99±7.43%. Also, the “Concentration that increased triangulation (APD90-APD30) of the action potential” value in data set [4] (30 min exposure) is on record as 180 nM. Further, the “Concentration that reduced medium repolarisation (APD50)” value in data set [4] (30 min exposure) is on record as 1800 nM. The “Effect on cycle length” value in data set [4] (all tested concentrations) is recorded as “not affected”. Also, the “Electrical activity of the cells” value in data set [4] (highest concentrations (100 times typical)) was “electrically quiescent”. Further, in data set [4] (increasing concentrations), the “Depolarisation (phase 0) measured by TRise” value is on record as “No changes; also recorded: No significant increase”. In addition, the “Early and medium repolarisation (APD30 and APD50)” value in data set [4] (intermediate concentrations) was “shortening”. Also, the “Triangulation (APD90-APD30) effect” value in data set [4] (low concentrations) is given as “significantly increased”. For the same compound, in data set [4] (lowest tested concentrations), the Late repolarisation entry is listed as “prolonged”. In data set [3], the “Concentration relative to S-citalopram after administration of racemic citalopram” value was 3 times.
Take `CNCCC[C@]1(c2ccc(F)cc2)OCc2cc(C#N)ccc21` [R-demethylcitalopram]: the “Concentration dependence of triangulation” value in data set [4] is on record as “dose-dependent increase”. The “Effect on late repolarisation (APD90)” value in data set [4] (2000 nM) was “not late repolarisation”. Further, the “% Change of cycle length from baseline” value in data set [4] (10x clinical concentration) was -9.34±2.21 %; in data set [4] (100x clinical concentration), -8.55±6.93 %; in data set [4] (clinical concentration) it was -6.45±4.32 %. Moreover, in data set [4] (30 min exposure), the “Concentration that increased triangulation (APD90-APD30) of the action potential” value was found to be 2000 nM. For the same compound, the “Concentration that reduced early repolarisation (APD30)” value in data set [4] (30 min exposure) stood at 2000 nM. For the same compound, in data set [4] (all tested concentrations), the “Effect on cycle length” value is listed as “limited shortening”.
For the compound `N#Cc1ccc2c(c1)CO[C@]2(CCCN)c1ccc(F)cc1` [R-didemethylcitalopram], the “Cardiotoxic at therapeutic concentrations” value in data set [4] is “did not find indications”. The “% Change of cycle length from baseline” value is -1.09±3.49% in data set [4] (10x clinical concentration), -1.67±2.65% in data set [4] (100x clinical concentration) and -1.40±5.04% in data set [4] (clinical concentration). Also, the “Concentration that increased early repolarisation (APD30)” value in data set [4] (30 min exposure) stood at 60 nM. In addition, the “Concentration that reduced triangulation (APD90-APD30)” value in data set [4] (30 min exposure) was found to be 6 nM. In addition, the “Effect on cycle length” value in data set [4] (all tested concentrations) is “not affected”.
Regarding `CNCCC[C@@]1(c2ccc(F)cc2)OCc2cc(C#N)ccc21` [S-demethylcitalopram], the “Concentration dependence of triangulation” value in data set [4] is listed as “dose-dependent increase”. Besides, the “% Change of cycle length from baseline” value in data set [4] (10x clinical concentration) was -3.81±3.22 %. In data set [4] (100x clinical concentration), the “% Change of cycle length from baseline” value was -7.22±2.14 %. In addition, in data set [4] (30 min exposure), the “Concentration that increased late repolarisation (APD90)” value is 1500 nM, the “Concentration that increased triangulation (APD90-APD30) of the action potential” value worked out at 150 nM and the “Concentration that reduced early repolarisation (APD30)” value is listed as 1500 nM. Also, the “Effect on cycle length” value in data set [4] (all tested concentrations) was “limited shortening”. In addition, the “% Change of cycle length from baseline” value in data set [4] (clinical concentration) is -4.33±3.45 %.
Turning to `N#Cc1ccc2c(c1)CO[C@@]2(CCCN)c1ccc(F)cc1` [S-didemethylcitalopram], in data set [4], the “Cardiotoxic at therapeutic concentrations” value is listed as “did not find indications”. In addition, the “% Change of cycle length from baseline” value in data set [4] (10x clinical concentration) came to 9.89±8.49%. The “% Change of cycle length from baseline” value in data set [4] (100x clinical concentration) stood at 0.09±7.78%. Also, in data set [4] (30 min exposure), the “Concentration that increased early repolarisation (APD30)” value is on record as 15 nM, the “Concentration that increased late repolarisation (APD90)” value came to 15 nM and the “Concentration that increased medium repolarisation (APD50)” value was determined as 15 nM. In addition, in data set [4] (all tested concentrations), the “Concentrations with significant effect on triangulation (APD90-APD30)” value is recorded as “No tested concentrations” and the “Effect on cycle length” value is reported as “not affected”. Also, in data set [4] (at concentrations higher than 15 nM), the “Effects on medium to late repolarisation” value is “not present”. In addition, in data set [4] (clinical concentration), the “% Change of cycle length from baseline” value is 1.42±3.67%.
